In US6479461B1, “Use of alkylmonoglucosides as molecular vectors” (Ulice, priority 1997, dated 2002):
Where two headings read alike, the source gives them in different places.

How the values were obtained:
[1] = system: skin model: epidermis reconstituted from keratinocytes on a matrix of collagen; assay: MTT dosage on skin model (cytotoxicity)
Excerpt: We have quantified and compared in vitro, the cytotoxicity of lactic acid and of lactate of α-butylglucoside on a skin model. This skin model is made up of a matrix of collagen on which rests an epidermis reconstituted from keratinocytes and presenting a similar architecture to that of the human epidermis. The transformation of tetrazolium salt (MTT) in blue crystals of Formozan is proportional to the activity of the dehydrogenase succinate, (a mitochondrial enzyme). As a consequence, the more the epidermis contains living cells, the larger the transformation by the dehydrogenase succinate of the MTT in blue Formozan crystals will be. The quantity of Formozan is measured in the spectrophotometer. The cellular viability, carried out to determine the toxicity of the product, is calculated according to the formula:
% viability=OD produced/OD cellular control×100
The cellular control is carried out without issue. A reference tensioactive SDS (Sodium Dodecyl Sulphate) at 1.5 mg/ml is equally tested as a cytotoxic control.
If the cellular viability is between 70 and 50%, the products are considered as slightly cytotoxic.
If it is lower than 50%, the products are considered as cytotoxic.

[2] = system: corneas from abattoir beef carcasses
Excerpt: The BCOP test (bovine corneal opacity and permeability) makes it possible to evaluate the ocular irritation indice in vitro on corneas from abattoir beef carcasses. It measures two parameter of ocular irritation: the opacity and cellular permeability.
The opacity is defined as the difference of light transmission between a treated cornea and a control cornea. The permeability is equal to the optical density (OD) measured in a spectrophotometer at 490 nm.
The irritation score in vitro is established by using the following formula:
Score in vitro=opacity value+[…] the value of OD.
The objective values are combined and the scores of ocular irritation in vitro are compared to an irritation scale previously established. In general, the irritant potential is classed in three categories weak (0 to 25), moderate (25.1 to 55) and severe (55.1 and +).

[3] = SDS at 1-5 mg/ml, MTT, skin model

In the case of CCCCO[C@H]1O[C@H](COC(=O)C(C)O)[C@@H](O)[C@H](O)[C@H]1O (stereo partly drawn) [Lactate of α-butylglucoside, Lactic Ester of α-Butylglucoside], the “% viability in comparison to the control” value [1] is reported as 74.5%, the “Average (optical density at 540 nm)” value [1] is reported as 0.255 and the “OD trial 1 (optical density at 540 nm)” value [1] is reported as 0.242. The “OD trial 2 (optical density at 540 nm)” value [1] was 0.265, the cytotoxicity class [1] was “not cytotoxic” and the “irritancy compared with lactic acid” value [1] was “less irritant than lactic acid”.

In the case of CC(O)C(=O)O (stereo not shown) [Lactic acid, lactic acid], the ocular irritation category [2] is reported as “moderately irritant”, the “% viability in comparison to the control” value ([1]; 5 %) is reported as 16% and the “Average (optical density at 540 nm)” value ([1]; 5 %) is reported as 0.055. For the same molecule, the “OD trial 1 (optical density at 540 nm)” value ([1]; 5 %) was 0.044 and the “OD trial 2 (optical density at 540 nm)” value ([1]; 5 %) was 0.066.

For CCCCCCCCCCCCOS(=O)(=O)[O-].[Na+] [SDS, Sodium Dodecyl Sulphate], the “% viability in comparison to the control” value [1, 3] was 14.8%, the “Average (optical density at 540 nm)” value [1, 3] was 0.051 and the “OD trial 1 (optical density at 540 nm)” value [1, 3] was 0.046. The “OD trial 2 (optical density at 540 nm)” value [1, 3] was 0.056.

In the case of CCCCO[C@H]1O[C@H](CO)[C@@H](O)[C@H](O)[C@H]1O [α-butylglucoside, n-butyl-α-D-monoglucopyranose], the “miscibility with saturated and unsaturated acids” value (in a melted medium) is reported as “miscible in all proportions”, the “Solubility at 20° C.” value (solvent: Acetonitrile) is reported as 50 % (p/p) and the “Solubility at 20° C.” value (solvent: Dichloromethane) is reported as 70 % (p/p). For the same molecule, the “Solubility at 20° C.” value (solvent: Dioxane) was 70 % (p/p), the “Solubility at 20° C.” value (solvent: Ethanol (95/96%)) was 70 % (p/p) and the “Solubility at 20° C.” value (solvent: Glycerol) was 70 % (p/p). The “Solubility at 20° C.” value (solvent: Polyethylene glycol 200) was 70 % (p/p), the “Solubility at 20° C.” value (solvent: Propylene glycol) was 70 % (p/p) and the “Solubility at 20° C.” value (solvent: Water) was 60 % (p/p). The ocular irritation category [2] was “non-irritant”.
